Reference: patent publication US11548860B2, “Pharmacophores, compounds and methods having application in the treatment of cancer through inhibition of CYP17A1 and CYP19A1” (MANGOSUTHU UNIVERSITY OF TECHNOLOGY, priority 2015, dated 2023)

Assays:
CYP17A1 [1] = conditions: actual (literature) activity of training/test set compounds, cited from earlier work; for IC50: unit nM
Solubility in DMSO = type: physicochemical
CYP17A1 [2] = molecular target: CYP17A1 (Homo sapiens (Human), UniProt P05093); experiment: CYP17A1 inhibition, CYP17A1 bactosomes, progesterone substrate, LC-MS/MS; type: biochemical; conditions: Table 2
Chain of CYP17A1 (Homo sapiens (Human), UniProt P05093) (P05093 whole entry, canonical isoform): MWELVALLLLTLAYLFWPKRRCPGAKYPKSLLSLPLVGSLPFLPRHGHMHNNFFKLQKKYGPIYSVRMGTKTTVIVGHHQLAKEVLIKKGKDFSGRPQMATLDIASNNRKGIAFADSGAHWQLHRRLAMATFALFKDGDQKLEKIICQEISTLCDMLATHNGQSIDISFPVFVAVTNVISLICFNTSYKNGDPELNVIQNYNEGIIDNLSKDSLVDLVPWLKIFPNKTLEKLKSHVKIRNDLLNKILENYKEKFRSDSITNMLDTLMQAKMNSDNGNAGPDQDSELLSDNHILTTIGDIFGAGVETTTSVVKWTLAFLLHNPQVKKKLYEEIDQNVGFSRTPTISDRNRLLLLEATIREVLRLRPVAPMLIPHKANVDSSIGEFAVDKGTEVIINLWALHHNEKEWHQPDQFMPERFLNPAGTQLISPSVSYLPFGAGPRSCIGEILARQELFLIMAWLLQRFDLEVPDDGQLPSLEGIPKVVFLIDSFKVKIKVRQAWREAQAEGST
Method: CYP17A1 inhibition was measured using 20 pmol/ml CYP17A1 bactosomes (Cypex, Dundee, UK) and 0.1 μM progesterone as a substrate and 1 mM NADPH in 50 mM potassium phosphate buffer pH 7.4 containing 5 mM magnesium chloride. Inhibitors were dissolved in DMSO and serially diluted in seven ½ log steps, final concentrations ranging from 50 μA to 50 nM. Reaction volume was 100 μl and final DMSO concentration was 1% (v/v). Reactions were started by the addition of NADPH and incubated at 37° C. for 20 minutes with shaking at 1800 rpm on a Bioshake IQ (Q-Instruments, Jena, Germany). Reactions were terminated by the addition of 200 μl methanol containing 1 μM tolbutamide as an internal standard.

[3] = tested on: CYP1A2, CYP2C9, CYP2C19, CYP2D6, and CYP3A4; experiment: Summary of inhibition of metabolic CYP450 isoforms (5 CYP panel); type: in vitro ADME, human; conditions: Table 2
[4] = Toxicity studies on the molecules in Table 2
CYP19A1 = CYP19A1 (Homo sapiens (Human), UniProt P11511); experiment: CYP19A1 inhibition, CYP19/MFC High Throughput Inhibitor Screen Kit, fluorescence; type: biochemical; conditions: Table 2
Chain of CYP19A1 (P11511 whole entry): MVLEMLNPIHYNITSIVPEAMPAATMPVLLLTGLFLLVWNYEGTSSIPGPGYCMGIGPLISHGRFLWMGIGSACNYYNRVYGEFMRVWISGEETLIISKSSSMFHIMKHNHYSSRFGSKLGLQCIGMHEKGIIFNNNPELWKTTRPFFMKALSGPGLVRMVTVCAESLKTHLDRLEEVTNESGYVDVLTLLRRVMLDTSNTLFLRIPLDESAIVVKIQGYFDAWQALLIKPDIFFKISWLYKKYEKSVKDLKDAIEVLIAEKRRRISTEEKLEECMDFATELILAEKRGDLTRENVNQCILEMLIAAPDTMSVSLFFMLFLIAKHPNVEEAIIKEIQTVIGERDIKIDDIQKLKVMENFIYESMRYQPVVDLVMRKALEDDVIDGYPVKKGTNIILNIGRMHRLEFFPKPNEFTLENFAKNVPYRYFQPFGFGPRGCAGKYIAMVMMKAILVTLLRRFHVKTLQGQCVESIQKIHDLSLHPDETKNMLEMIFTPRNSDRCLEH
Method: Test compounds and control inhibitors were prepared as stocks in either Acetonitrile or DMSO from the solid compound. Compounds were serially diluted in ½ log steps in the same solvent. CYP19A1 inhibition experiments were performed using the CYP19/MFC High Throughput Inhibitor Screen Kit (Corning). Test compounds were tested in seven concentrations: […] CYP19A1 reactions were performed in black 96 well-plates (Greiner) according to the manufacturer's instructions. […] Final organic solvent concentrations were either 4% (v/v) acetonitrile or 0.5% (v/v) Dimethyl sulfoxide. The plates were covered with self-adhesive film lids and incubated for 10 minutes at 37° C. Reactions were terminated by the addition of 75 μl Stop Solution (100 mM Tris base in acetonitrile: MilliQ water (80:20). […] The CYP activities for each test compound/positive control inhibitor at each concentration were converted to % of control activity (CA). The LC-MS/MS peak responses (CYP metabolite peak area/internal standard peak area) for each test compound or positive control inhibitor were used and the response for each sample was expressed as a percentage of an uninhibited control (DMSO incubation).

CYP17A1 and CYP19A1 = experiment: Classification as Dual Inhibitor (inhibitor of both CYP17A1 and CYP19A1); conditions: inhibitors of both CYP17A1 and CYP19A1

SMILES | pIC50 (CYP17A1 [1]) | IC50 (CYP17A1 [1]) | also measured
NC(=O)c1ccc2cc(C3(O)CCn4cncc43)ccc2c1 (racemic) [3b [11]] | 7.540 | 29 nM | –
CNC(=O)c1ccc2cc(C3CCn4cncc43)ccc2c1 (racemic) [3d [11]] | 7.890 | 13 nM | –
c1ccc(-c2ccc3c(c2)CCC3n2ccnc2)cc1 (racemic) [5ay [7]] | 6.620 | 240 nM | –
O=C(NC1CC1)c1ccc2cc(C3(O)CCn4cncc43)ccc2c1 (racemic) [5bx [7]] | 6.600 | 250 nM | –
CC(C)C(O)(c1ccc(-c2ccccc2)cc1)c1c[nH]cn1 (racemic) [7 [12]] | 7.480 | 33 nM | –
COc1ccc(-c2ccc(C(O)(c3c[nH]cn3)C(C)C)cc2)cc1 (racemic) [8 [12]] | 7.270 | 54 nM | –
CC(c1ccc(-c2ccsc2)cc1)n1ccnc1 (racemic) [12 [9]] | 6.050 | 876 nM | –
CC(C)C(O)(c1cccc(-c2ccc(F)cc2)c1)c1c[nH]cn1 (racemic) [13 [12]] | 7.720 | 19 nM | –
CC(C)C(O)(c1ccc(-c2ccc(F)cc2)cc1)c1c[nH]cn1 (racemic) [15 [12]] | 7.570 | 27 nM | –
COc1ccc(-c2ccc3c(c2)CCCC3(O)c2ccncc2)cc1F (racemic) [16 [9]] | 5.480 | 3340 nM | –
CC(C)C(O)(c1ccc(-c2ccc(Cl)cc2)cc1)c1c[nH]cn1 (racemic) [16 [12]] | 7.550 | 28 nM | –
CCNC(=O)c1ccc2cc(C3(O)CCn4cncc43)ccc2c1 (racemic) [25 [2]] | 6.730 | 186 nM | –
CC(=O)Nc1cccc(-c2ccc(C(C)(O)c3c[nH]cn3)cc2)c1 (racemic) [32 [12]] | 7.420 | 38 nM | –
CCC(O)(c1ccc(-c2cccc(NC(C)=O)c2)cc1)c1c[nH]cn1 (racemic) [33 [12]] | 7.400 | 40 nM | –
CC(=O)Nc1cccc(-c2ccc(C(O)(c3c[nH]cn3)C3CC3)cc2)c1 (racemic) [34 [12]] | 7.350 | 45 nM | –
CNC(=O)c1ccc2cc(C(O)(c3cnc[nH]3)C(C)C)ccc2c1 (centres unmarked) [1 [11]] | 7.800 | 16 nM | –
Brc1ccc(Cc2ccncc2)cc1 [3g [11]] | 6.400 | 400 nM | –
Oc1cccc(-c2ccc(Cc3ccncc3)cc2)c1 [3i [11]] | 7.060 | 88 nM | –
CC(c1ccc(-c2ccc(F)cc2)cc1)n1ccnc1 (centres unmarked) [4 [9], 4-fluoro-4-[1-(1H-imidazolyl)ethyl]biphenyl] | 6.610 | 248 nM | –
Oc1ccc(-c2ccc(Cc3ccncc3)cc2)cc1F [5ax [7]] | 6.770 | 170 nM | –
Oc1ccc(-c2ccc(Cc3ccncc3)cc2)cc1O [9 [9]] | 7.280 | 52 nM | –
COc1ccc(-c2ccc(Cc3ccncc3)cc2)cc1OC [9a [9]] | 7.280 | 52 nM | –
CC(C)=C(c1ccncc1)c1ccc(-c2cccc(O)c2)cc1 [13 [2]] | 7.250 | 56 nM | –

SMILES | pIC50 (CYP17A1 [1]) | IC50 (CYP17A1 [1]) | also measured
COc1ccc2cc(-c3ccc(Cc4ccncc4)cc3)ccc2c1 [13 [9]] | 5.750 | 1790 nM | –
CC(C)C(O)(c1cccc(-c2ccc(Cl)cc2)c1)c1c[nH]cn1 (centres unmarked) [14 [12]] | 7.310 | 49 nM | –
CC(C)=C(c1ccncc1)c1ccc(-c2ccc(O)c(F)c2)cc1 [15 [2]] | 7.120 | 75 nM | –
Cl.Fc1ccc(-c2ccc3c(c2)CCC3c2cccnc2)cc1 (centres unmarked) [15 [13]] | 4.700 | 20000 nM | –
CC(C)=C(c1ccncc1)c1ccc(-c2ccc(O)c(O)c2)cc1 [16 [2]] | 7.430 | 37 nM | –
CC(=O)Nc1cccc(-c2ccc(C(O)(c3c[nH]cn3)C(C)C)cc2)c1 (centres unmarked) [17 [12]] | 7.620 | 24 nM | –
Br.Oc1ccc(-c2ccc3c(c2)CCCC3c2ccncc2)cc1F (centres unmarked) [20 [13]] | 7.190 | 64 nM | –
CC(C)=C(c1ccncc1)c1ccc(-c2ccc(N)c(N)c2)cc1 [22 [2]] | 7.120 | 75 nM | –
CNC(=O)c1cccc(-c2ccc(C(O)(c3c[nH]cn3)C(C)C)cc2)c1 (centres unmarked) [22 [12]] | 7.360 | 44 nM | –
CNC(=O)Nc1cccc(-c2ccc(C(O)(c3c[nH]cn3)C(C)C)cc2)c1 (centres unmarked) [24 [12]] | 7.680 | 21 nM | –
CC(=O)Nc1cccc(-c2ccc(C(O)(c3c[nH]cn3)C(C)C)cc2)n1 (centres unmarked) [26 [12]] | 7.440 | 36 nM | –
Oc1ccc(-c2ccc(Cc3ccncc3)cc2)cc1 [30 [10]] | 6.630 | 236 nM | –
CCc1ccc(NC(=O)c2cc(C(=O)c3cc(OC)ccc3O)coc2=N)cc1 [Compound 1, N-(4-ethylphenyl)-5-(2-hydroxy-5-methoxybenzoyl)-2-imino-2H-pyran-3-carboxamide] | – | – | Soluble in DMSO (Solubility in DMSO): Yes; inhibitory potency of CYP17A1, level in words (CYP17A1 [2]): micromolar levels; inhibition of various CYP450 isoforms (drug-drug interaction) [3]: inhibit various CYP450 isoforms; safety profile [4]: reasonably good safety profiles
O=C(CSc1nnc(-c2c[nH]c3ccccc23)n1Cc1ccco1)NCc1ccccc1Cl [Compound 2, N-[(2-chlorophenyl)methyl]-2-({4-[(furan-2-yl)methyl]-5-(1H-indol-3-yl)-4H-1,2,4-triazol-3-yl}sulfanyl)acetamide] | – | – | Soluble in DMSO (Solubility in DMSO): Yes; inhibitory potency of CYP17A1, level in words (CYP17A1 [2]): micromolar levels; inhibition of various CYP450 isoforms (drug-drug interaction) [3]: inhibit various CYP450 isoforms; safety profile [4]: reasonably good safety profiles
COC(C)C(=O)Nc1cccc(NC(C(N)=O)c2ccccc2)c1 (centres unmarked) [Compound 5, N-(3-{[carbamoyl(phenyl)methyl]amino}phenyl)-2-methoxypropanamide] | – | – | Soluble in DMSO (Solubility in DMSO): Yes; safety profile [4]: excellent safety profiles
O=C1COc2cc(NCc3cccc(NC(=O)c4ccccc4Cl)c3)c(Cl)cc2N1 [Compound 7, 2-chloro-N-(3-{[(6-chloro-3-oxo-3,4-dihydro-2H-1,4-benzoxazin-7-yl)amino]methyl}phenyl)benzamide] | – | – | IC50 values against CYP19A1, potency level in words (CYP19A1): sub-micromolar inhibitory potency levels; Soluble in DMSO (Solubility in DMSO): Yes; inhibitory potency of CYP17A1, level in words (CYP17A1 [2]): micromolar levels; safety profile [4]: excellent safety profiles; Dual Inhibitor classification (CYP17A1 and CYP19A1): Dual Inhibitors
O=C1COc2cc(NCc3cccc(C(=O)Nc4cccnc4)c3)c(O)cc2N1 [Compound 8, 3-{[(6-hydroxy-3-oxo-3,4-dihydro-2H-1,4-benzoxazin-7-yl)amino]methyl}-N-(pyridin-3-yl)benzamide] | – | – | IC50 values against CYP19A1, potency level in words (CYP19A1): sub-micromolar inhibitory potency levels; Soluble in DMSO (Solubility in DMSO): Yes; safety profile [4]: excellent safety profiles
O=C(Nc1ccccc1O)c1ccc(Oc2cccc(C(=O)Nc3ccccc3O)c2)cc1 [Compound 9, N-(2-hydroxyphenyl)-4-{3-[(2-hydroxyphenyl)carbamoyl]phenoxyl}benzamide] | – | – | Soluble in DMSO (Solubility in DMSO): Yes; inhibitory potency of CYP17A1, level in words (CYP17A1 [2]): micromolar levels; safety profile [4]: excellent safety profiles
O=C1COc2cc(NCc3cccc(C(=O)Nc4cccnc4)c3)ccc2N1 [Compound 10, 3-{[(3-oxo-3,4-dihydro-2H-1,4-benzoxazin-7-yl)amino]methyl}-N-(pyridin-3-yl)benzamide] | – | – | IC50 values against CYP19A1, potency level in words (CYP19A1): sub-micromolar inhibitory potency levels; Soluble in DMSO (Solubility in DMSO): Yes; inhibitory potency of CYP17A1, level in words (CYP17A1 [2]): micromolar levels; safety profile [4]: excellent safety profiles; Dual Inhibitor classification (CYP17A1 and CYP19A1): Dual Inhibitors
O=C1COc2cc(NCc3cccc(C(=O)Nc4ccccc4O)c3)ccc2N1 [Compound 11, N-(2-hydroxyphenyl)-3-{[(3-oxo-3,4-dihydro-2H-1,4-benzoxazin-7-yl)amino]methyl}benzamide] | – | – | IC50 values against CYP19A1, potency level in words (CYP19A1): sub-micromolar inhibitory potency levels; Soluble in DMSO (Solubility in DMSO): Yes; inhibition of various CYP450 isoforms (drug-drug interaction) [3]: inhibit various CYP450 isoforms; safety profile [4]: reasonably good safety profiles
O=C1COc2cc(NCc3cccc(C(=O)Nc4cccnc4)c3)c(Cl)cc2N1 [Compound 13, 3-{[(6-chloro-3-oxo-3,4-dihydro-2H-1,4-benzoxazin-7-yl)amino]methyl}-N-(pyridin-3-yl)benzamide] | – | – | IC50 values against CYP19A1, potency level in words (CYP19A1): sub-micromolar inhibitory potency levels; Soluble in DMSO (Solubility in DMSO): Yes; inhibition of various CYP450 isoforms (drug-drug interaction) [3]: inhibit various CYP450 isoforms; safety profile [4]: reasonably good safety profiles; Dual Inhibitor classification (CYP17A1 and CYP19A1): Dual Inhibitors
CNC(=O)c1ccc2cc([C@@]3(O)CCn4cncc43)ccc2c1 [TAK700] | 7.550 | 28 nM | –
